Results taken from ChEMBL document CHEMBL3875196, “Novel pyrazolo[1,5-a]pyridines with improved aqueous solubility as p110α-selective PI3 kinase inhibitors” (Bioorg Med Chem Lett, 2017).
pIC50: −log10 of the molar value.

Tests used:
[1] = Solubility of the compound in water by HPLC analysis; format: physicochemical
[2] = Inhibition of recombinant mouse p110alpha/N-terminal His-tagged human p85alpha expressed in baculovirus infected Sf21 cells using L-alpha-phosphatidylinositol as substrate after 1 hr in presence of [gamma33]-ATP by thin layer chromatographic analysis
PI3K p110 beta/p85 alpha = PI3K p110 beta/p85 alpha (Homo sapiens, UniProt P42338); assay: Inhibition of recombinant human p110beta/N-terminal His-tagged human p85alpha expressed in baculovirus infected sf cells using L-alpha-phosphatidylinositol as substrate after 1 hr in presence of [gamma33]-ATP by thin layer chromatographic analysis
Sequence of PI3K p110 beta/p85 alpha (P27986 whole entry, canonical isoform): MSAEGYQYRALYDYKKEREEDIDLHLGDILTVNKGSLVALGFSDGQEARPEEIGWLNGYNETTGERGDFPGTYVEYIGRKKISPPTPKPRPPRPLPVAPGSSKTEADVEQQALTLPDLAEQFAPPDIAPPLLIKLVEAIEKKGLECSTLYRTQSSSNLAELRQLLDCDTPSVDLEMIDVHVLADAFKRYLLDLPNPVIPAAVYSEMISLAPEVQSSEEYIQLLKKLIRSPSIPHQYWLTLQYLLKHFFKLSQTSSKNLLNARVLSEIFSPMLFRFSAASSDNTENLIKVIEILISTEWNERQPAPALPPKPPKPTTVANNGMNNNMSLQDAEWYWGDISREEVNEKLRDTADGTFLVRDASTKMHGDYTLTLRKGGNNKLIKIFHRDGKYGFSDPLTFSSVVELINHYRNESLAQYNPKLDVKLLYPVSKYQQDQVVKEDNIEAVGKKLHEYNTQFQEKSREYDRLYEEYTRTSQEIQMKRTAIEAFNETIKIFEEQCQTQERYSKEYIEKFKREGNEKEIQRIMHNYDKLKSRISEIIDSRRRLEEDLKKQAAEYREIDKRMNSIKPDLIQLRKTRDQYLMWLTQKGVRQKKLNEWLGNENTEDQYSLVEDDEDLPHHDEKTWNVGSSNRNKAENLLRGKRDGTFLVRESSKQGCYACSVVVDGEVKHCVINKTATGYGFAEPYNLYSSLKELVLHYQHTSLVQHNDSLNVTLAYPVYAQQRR
Sequence of PI3K p110 beta/p85 alpha (P42338 whole entry, canonical isoform): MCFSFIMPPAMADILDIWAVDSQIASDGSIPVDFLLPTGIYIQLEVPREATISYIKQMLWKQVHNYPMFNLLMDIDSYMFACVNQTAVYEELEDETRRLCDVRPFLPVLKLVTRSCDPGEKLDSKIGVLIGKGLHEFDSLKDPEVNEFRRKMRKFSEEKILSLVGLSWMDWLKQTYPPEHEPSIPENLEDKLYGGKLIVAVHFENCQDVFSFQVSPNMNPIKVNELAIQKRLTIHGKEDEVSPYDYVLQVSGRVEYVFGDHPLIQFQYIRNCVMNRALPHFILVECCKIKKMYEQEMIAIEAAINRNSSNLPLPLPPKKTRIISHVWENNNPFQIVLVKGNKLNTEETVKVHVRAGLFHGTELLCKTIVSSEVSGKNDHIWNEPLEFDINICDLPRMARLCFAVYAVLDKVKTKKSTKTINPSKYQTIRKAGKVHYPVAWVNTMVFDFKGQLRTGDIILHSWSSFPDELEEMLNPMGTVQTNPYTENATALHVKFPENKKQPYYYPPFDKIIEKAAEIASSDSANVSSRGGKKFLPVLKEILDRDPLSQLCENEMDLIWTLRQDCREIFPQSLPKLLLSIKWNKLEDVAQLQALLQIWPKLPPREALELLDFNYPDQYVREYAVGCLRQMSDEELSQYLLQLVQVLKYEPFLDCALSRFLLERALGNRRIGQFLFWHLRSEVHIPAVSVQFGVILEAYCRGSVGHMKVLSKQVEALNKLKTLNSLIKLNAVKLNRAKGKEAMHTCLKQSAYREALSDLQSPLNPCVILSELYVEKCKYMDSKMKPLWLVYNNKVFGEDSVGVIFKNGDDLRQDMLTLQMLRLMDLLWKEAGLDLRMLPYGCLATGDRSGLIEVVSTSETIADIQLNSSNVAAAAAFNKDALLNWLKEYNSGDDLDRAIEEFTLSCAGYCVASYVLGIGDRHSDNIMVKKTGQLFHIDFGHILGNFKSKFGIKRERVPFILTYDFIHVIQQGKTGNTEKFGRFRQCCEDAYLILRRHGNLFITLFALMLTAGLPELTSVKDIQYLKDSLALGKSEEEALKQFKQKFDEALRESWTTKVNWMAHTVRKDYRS

[3] = molecular target: T1, Phosphatidylinositol 4,5-bisphosphate 3-kinase catalytic subunit delta isoform (Homo sapiens, UniProt O00329); assay: Inhibition of p110delta (unknown origin) using L-alpha phosphatidylinositol as substrate after 1 hr in presence of [gamma33]-ATP by thin layer chromatographic analysis
T1 sequence (O00329 whole entry): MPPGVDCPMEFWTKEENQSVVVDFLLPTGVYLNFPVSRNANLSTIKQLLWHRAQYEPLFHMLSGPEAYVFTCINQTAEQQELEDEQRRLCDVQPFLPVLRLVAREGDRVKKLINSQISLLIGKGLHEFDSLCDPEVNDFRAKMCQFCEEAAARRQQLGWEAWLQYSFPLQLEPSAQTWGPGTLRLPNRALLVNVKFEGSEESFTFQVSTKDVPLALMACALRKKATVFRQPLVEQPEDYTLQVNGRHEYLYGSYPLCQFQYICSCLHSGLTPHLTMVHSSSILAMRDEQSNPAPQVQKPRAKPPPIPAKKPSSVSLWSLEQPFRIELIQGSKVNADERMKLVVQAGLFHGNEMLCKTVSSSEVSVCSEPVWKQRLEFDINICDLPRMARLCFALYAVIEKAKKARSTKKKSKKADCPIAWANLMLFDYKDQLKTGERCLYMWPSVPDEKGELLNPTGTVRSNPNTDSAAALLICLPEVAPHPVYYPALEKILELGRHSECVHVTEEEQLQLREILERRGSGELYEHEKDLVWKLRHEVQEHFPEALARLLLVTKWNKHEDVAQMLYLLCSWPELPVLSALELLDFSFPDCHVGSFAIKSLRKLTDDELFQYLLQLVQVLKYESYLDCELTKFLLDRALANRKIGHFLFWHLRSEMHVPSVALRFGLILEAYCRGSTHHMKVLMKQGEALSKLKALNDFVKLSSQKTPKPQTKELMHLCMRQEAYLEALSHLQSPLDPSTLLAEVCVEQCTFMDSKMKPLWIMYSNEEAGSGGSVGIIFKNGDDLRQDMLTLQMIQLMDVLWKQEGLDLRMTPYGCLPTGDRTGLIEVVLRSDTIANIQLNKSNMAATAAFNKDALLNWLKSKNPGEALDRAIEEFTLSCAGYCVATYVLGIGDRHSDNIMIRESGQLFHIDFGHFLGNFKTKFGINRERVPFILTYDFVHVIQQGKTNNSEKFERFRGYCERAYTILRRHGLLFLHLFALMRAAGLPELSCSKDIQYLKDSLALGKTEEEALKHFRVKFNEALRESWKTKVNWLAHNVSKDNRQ

[4] = Antiproliferative activity against wild type p110alpha expressing human NZB5 cells after 5 days by [3H]-thymidine incorporation assay; format: functional, cell-based
[5] = Antiproliferative activity against wild type p110alpha expressing human NZOV9 cells after 5 days by [3H]-thymidine incorporation assay; format: functional, cell-based
[6] = molecular target: Phosphatidylinositol 4,5-bisphosphate 3-kinase catalytic subunit alpha isoform (Homo sapiens, UniProt P42336, H1047R); assay: Inhibition of p110alpha H1047R mutant in human HCT116 cells assessed as suppression of PKB phosphorylation at Ser473 preincubated for 15 mins followed by insulin stimulation for 5 mins by immunoblot analysis; format: cell-based, HCT-116
Sequence of Phosphatidylinositol 4,5-bisphosphate 3-kinase catalytic subunit alpha isoform (P42336 whole entry H1047R, canonical isoform): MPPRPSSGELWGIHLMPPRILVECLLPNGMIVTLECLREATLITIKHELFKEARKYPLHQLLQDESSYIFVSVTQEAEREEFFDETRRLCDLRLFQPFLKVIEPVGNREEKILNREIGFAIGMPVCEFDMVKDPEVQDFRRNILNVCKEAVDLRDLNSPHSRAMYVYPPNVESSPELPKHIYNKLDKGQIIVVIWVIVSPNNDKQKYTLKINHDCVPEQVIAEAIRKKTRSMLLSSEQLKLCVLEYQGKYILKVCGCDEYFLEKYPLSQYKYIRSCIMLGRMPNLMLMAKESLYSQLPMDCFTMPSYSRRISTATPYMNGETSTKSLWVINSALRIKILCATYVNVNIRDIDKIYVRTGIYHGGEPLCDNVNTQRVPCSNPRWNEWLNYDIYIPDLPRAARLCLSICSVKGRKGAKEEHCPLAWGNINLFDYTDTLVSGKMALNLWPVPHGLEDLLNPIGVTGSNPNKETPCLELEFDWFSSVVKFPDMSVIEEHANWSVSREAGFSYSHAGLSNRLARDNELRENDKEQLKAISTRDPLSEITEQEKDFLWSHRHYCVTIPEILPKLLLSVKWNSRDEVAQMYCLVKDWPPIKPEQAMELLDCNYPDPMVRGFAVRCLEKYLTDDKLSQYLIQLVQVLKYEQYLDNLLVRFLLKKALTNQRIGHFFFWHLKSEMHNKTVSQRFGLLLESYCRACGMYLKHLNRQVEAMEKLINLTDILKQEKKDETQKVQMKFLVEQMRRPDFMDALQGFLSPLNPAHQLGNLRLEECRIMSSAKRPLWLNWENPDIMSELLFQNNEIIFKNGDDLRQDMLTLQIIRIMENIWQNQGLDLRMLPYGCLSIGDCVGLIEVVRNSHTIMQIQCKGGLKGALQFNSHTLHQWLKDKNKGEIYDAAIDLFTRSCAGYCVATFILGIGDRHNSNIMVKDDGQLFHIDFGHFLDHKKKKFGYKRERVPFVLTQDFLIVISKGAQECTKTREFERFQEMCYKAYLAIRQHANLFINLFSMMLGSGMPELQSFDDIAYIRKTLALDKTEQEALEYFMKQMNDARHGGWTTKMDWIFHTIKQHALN

Mus musculus = assay: Toxicity in NIH3 mouse assessed as change in body weight at 20 to 40 mg/kg, ip; format: organism-based; conditions: in vivo
[7] = Selectivity ratio of IC50 for human p110beta to IC50 for recombinant mouse p110alpha/N-terminal His-tagged human p85alpha
[8] = Selectivity ratio of IC50 for p110delta (unknown origin) to IC50 for recombinant mouse p110alpha/N-terminal His-tagged human p85alpha

solubility [1]	pIC50 [2]	pIC50 (PI3K p110 beta/p85 alpha)	pIC50 [3]	pIC50 [6]	Ratio IC50 [7]	Ratio IC50 [8]	Compound	pIC50 [4]	pIC50 [5]	Activity (Mus musculus)
1 mg/mL							CN(CCn1ccnc1)c1ccc([N+](=O)[O-])cc1S(=O)(=O)N(C)/N=C/c1cnn2ccc(C#N)cc12.Cl			
1.2 mg/mL							CN(C)CCCN(C)c1ccc([N+](=O)[O-])cc1S(=O)(=O)N(C)/N=C/c1cnn2ccc(C#N)cc12.Cl			
	7.74	6.13	7.06	7.17			CN(CCc1c[nH]cn1)c1ccc([N+](=O)[O-])cc1S(=O)(=O)N(C)/N=C/c1cnn2ccc(C#N)cc12	8.52	7.24	Toxic
	8.28	5.03	6.24		40	100	C/C(=N\N(C)S(=O)(=O)c1cc([N+](=O)[O-])ccc1N(C)Cc1ccccn1)c1cnn2ccc(C#N)cc12	5.66	5.64	
	8.14	5.25	6.53		800	2000	C/C(=N\NS(=O)(=O)c1cc([N+](=O)[O-])ccc1N(C)Cc1ccccn1)c1cnn2ccc(Br)cc12	7.02	5.55	
0.9 mg/mL							CN(CCc1c[nH]cn1)c1ccc([N+](=O)[O-])cc1S(=O)(=O)N(C)/N=C/c1cnn2ccc(C#N)cc12.Cl			
0.0057 mg/mL							CN(CCc1ccccn1)c1ccc([N+](=O)[O-])cc1S(=O)(=O)N(C)/N=C/c1cnn2ccc(C#N)cc12.Cl			
0.045 mg/mL							CN(CCc1ccncc1)c1ccc([N+](=O)[O-])cc1S(=O)(=O)N(C)/N=C/c1cnn2ccc(C#N)cc12.Cl			
	7.12	6.48	7.18				CCN(CC)CCN(C)c1ccc([N+](=O)[O-])cc1S(=O)(=O)N(C)/N=C/c1cnn2ccc(C#N)cc12	6.30	6.47	
	7.80	7.12	7.00	7.14			CN(C)CCCN(C)c1ccc([N+](=O)[O-])cc1S(=O)(=O)N(C)/N=C/c1cnn2ccc(C#N)cc12	8.40	7.60	Toxic
0.024 mg/mL							CN(CCc1cccnc1)c1ccc([N+](=O)[O-])cc1S(=O)(=O)N(C)/N=C/c1cnn2ccc(C#N)cc12.Cl			
	7.82	6.41	6.82				CN(Cc1ccncc1)c1ccc([N+](=O)[O-])cc1S(=O)(=O)N(C)/N=C/c1cnn2ccc(C#N)cc12	7.36	6.32	
	7.51	6.82	7.00	6.95			CN(CCn1ccnc1)c1ccc([N+](=O)[O-])cc1S(=O)(=O)N(C)/N=C/c1cnn2ccc(C#N)cc12	8.30	7.35	
